Data reported in article PMC12130737, “Taurine Alleviates Pancreatic β‐Cell Senescence by Inhibition of p53 Pathway” (Journal of Diabetes, 2025).
Changes are numbered by the printed parent chain.

Tests used:
[1] = target: T1, CDKN2AIP recombinant protein (Homo sapiens, UniProt Q9NXV6); assay: DARTS (proteinase K protection of recombinant protein); format: binding
T1 construct: recombinant human CDKN2AIP
T1 sequence (Q9NXV6 2-580): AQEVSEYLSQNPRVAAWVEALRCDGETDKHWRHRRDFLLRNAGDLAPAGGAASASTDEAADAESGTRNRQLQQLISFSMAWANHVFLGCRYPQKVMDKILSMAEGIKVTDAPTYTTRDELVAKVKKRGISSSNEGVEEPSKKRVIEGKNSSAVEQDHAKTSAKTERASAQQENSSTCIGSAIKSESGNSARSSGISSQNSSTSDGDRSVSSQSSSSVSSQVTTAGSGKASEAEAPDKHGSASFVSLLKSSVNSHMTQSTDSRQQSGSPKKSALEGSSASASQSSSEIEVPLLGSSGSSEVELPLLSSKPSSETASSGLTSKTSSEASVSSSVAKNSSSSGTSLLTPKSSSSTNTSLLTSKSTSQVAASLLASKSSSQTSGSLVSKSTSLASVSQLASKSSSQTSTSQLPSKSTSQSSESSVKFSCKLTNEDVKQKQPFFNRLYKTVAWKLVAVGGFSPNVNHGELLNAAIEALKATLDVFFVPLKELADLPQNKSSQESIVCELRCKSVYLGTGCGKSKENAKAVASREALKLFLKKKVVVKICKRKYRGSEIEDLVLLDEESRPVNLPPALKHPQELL

[2] = target: T2, CDKN2AIP (Rattus norvegicus, UniProt Q5U2X0); assay: DARTS (proteinase K protection, immunoblot); format: biochemical; settings: INS-1E cell lysate, taurine 0-200 uM, pH 7.5, 1 h on ice
T2 construct: endogenous protein in INS-1E cell lysate
T2 sequence (Q5U2X0 2-570): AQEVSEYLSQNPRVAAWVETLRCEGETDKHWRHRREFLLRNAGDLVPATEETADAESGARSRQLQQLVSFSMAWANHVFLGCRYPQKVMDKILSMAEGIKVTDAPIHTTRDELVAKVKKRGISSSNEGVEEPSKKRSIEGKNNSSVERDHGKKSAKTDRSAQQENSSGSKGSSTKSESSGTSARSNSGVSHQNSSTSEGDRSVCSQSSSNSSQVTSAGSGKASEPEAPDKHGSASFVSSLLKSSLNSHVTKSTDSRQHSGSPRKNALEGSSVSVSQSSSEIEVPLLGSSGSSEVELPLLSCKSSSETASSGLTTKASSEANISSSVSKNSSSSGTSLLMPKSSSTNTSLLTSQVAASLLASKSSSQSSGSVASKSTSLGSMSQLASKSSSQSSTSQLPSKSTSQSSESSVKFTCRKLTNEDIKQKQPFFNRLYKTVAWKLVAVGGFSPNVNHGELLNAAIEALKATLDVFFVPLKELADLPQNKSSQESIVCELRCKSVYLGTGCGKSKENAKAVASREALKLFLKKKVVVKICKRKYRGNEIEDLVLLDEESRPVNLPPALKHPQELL

[3] = target: T3, GFP-tagged CDKN2AIP (Homo sapiens, UniProt Q9NXV6); assay: DARTS (proteinase K protection, immunoblot); format: biochemical; settings: HEK293 cell lysate, GFP-tagged wild type
T3 construct: GFP-tagged human CDKN2AIP expressed in HEK293 cells, cell lysate
T3 sequence (Q9NXV6 2-580): T1 sequence (Q9NXV6 2-580)

[4] = target: T4, SLC6A6 (Rattus norvegicus, UniProt P31643); assay: DARTS (proteinase K protection, immunoblot); format: biochemical; settings: INS-1E cell lysate, taurine 0-200 uM, pH 7.5, 1 h on ice; positive control
T4 construct: endogenous protein in INS-1E cell lysate
T4 sequence (P31643 1-621): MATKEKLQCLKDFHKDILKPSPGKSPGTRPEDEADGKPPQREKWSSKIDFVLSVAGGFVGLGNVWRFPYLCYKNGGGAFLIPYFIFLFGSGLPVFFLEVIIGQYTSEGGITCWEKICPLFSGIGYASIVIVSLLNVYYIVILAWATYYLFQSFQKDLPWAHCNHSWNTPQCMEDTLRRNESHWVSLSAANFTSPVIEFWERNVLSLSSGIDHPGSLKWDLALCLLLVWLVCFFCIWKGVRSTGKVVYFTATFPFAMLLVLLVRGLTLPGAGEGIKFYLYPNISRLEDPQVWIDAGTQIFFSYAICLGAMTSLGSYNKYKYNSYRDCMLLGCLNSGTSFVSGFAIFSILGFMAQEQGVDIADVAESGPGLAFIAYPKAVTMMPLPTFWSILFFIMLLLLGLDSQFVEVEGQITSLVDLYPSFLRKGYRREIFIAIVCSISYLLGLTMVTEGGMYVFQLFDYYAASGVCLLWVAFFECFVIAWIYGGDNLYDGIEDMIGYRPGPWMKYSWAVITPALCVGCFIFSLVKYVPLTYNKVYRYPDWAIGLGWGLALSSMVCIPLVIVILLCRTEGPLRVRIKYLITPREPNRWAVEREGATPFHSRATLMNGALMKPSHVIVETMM

[5] = target: T5, GFP-tagged CDKN2AIP (Homo sapiens, UniProt Q9NXV6, P484A/L485A/K486A); assay: DARTS (proteinase K protection, immunoblot); format: biochemical; settings: HEK293 cell lysate, GFP-tagged triple mutant
T5 construct: GFP-tagged human CDKN2AIP expressed in HEK293 cells, cell lysate
T5 sequence (Q9NXV6 2-580 P484A/L485A/K486A): T1 sequence (Q9NXV6 2-580) with P483A, L484A, K485A

[6] = target: T6, CDKN2AIP (Mus musculus, UniProt Q8BI72); assay: DARTS (proteinase K protection, immunoblot); format: biochemical; settings: MIN6 cell lysate, taurine 0-200 uM, pH 7.5, 1 h on ice
T6 construct: endogenous protein in MIN6 cell lysate
T6 sequence (Q8BI72 2-563): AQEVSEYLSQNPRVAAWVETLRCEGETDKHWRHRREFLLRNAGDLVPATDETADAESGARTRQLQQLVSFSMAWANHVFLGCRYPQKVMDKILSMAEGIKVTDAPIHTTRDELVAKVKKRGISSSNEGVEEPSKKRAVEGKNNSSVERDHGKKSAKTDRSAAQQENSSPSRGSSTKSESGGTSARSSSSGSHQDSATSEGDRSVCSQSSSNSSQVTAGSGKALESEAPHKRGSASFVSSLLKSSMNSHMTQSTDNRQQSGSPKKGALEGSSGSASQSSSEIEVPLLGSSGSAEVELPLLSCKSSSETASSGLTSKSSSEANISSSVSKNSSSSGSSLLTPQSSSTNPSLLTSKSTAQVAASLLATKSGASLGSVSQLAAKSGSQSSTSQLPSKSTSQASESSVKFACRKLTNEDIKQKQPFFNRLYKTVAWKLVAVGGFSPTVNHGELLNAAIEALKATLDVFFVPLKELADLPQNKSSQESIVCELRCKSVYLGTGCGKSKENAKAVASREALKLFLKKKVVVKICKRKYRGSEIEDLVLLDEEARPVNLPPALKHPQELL

[7] = target: T7, SLC6A6 (Mus musculus, UniProt O35316); assay: DARTS (proteinase K protection, immunoblot); format: biochemical; settings: MIN6 cell lysate, taurine 0-200 uM, pH 7.5, 1 h on ice; positive control
T7 construct: endogenous protein in MIN6 cell lysate
T7 sequence (O35316 1-621): T4 sequence (P31643 1-621) with Q151H, A188T, H212N, N281D, E286G, V435L, I521V, V555L, A602V

In the case of `NCCS(=O)(=O)O` [taurine, 2‐aminoethanesulfonic acid], the “DARTS (proteinase K protection of recombinant protein)” value [1] was “Taurine also prevented proteinase K‐induced degradation of the CDKN2AIP recombinant protein”, the “DARTS (proteinase K protection, immunoblot)” value [2] was “taurine dose‐dependently prevented protease K‐induced degradation of CDKN2AIP and SLC6A6” and the “DARTS (proteinase K protection, immunoblot)” value [3] was “DARTS experiments demonstrated that taurine bound to wild‐type CDKN2AIP”. For the same molecule, the “DARTS (proteinase K protection, immunoblot)” value [4] was “taurine dose‐dependently prevented protease K‐induced degradation of CDKN2AIP and SLC6A6”, the “DARTS (proteinase K protection, immunoblot)” value [5] was “taurine bound to wild‐type CDKN2AIP but not the CDKN2AIP‐triple mutant” and the “DARTS (proteinase K protection, immunoblot)” value [6] was “taurine dose‐dependently prevented protease K‐induced degradation of CDKN2AIP and SLC6A6”. For the same molecule, the “DARTS (proteinase K protection, immunoblot)” value [7] was “taurine dose‐dependently prevented protease K‐induced degradation of CDKN2AIP and SLC6A6”.
